Tests used:
[1] = molecular target: Tyrosine-protein kinase receptor UFO (Homo sapiens) (UniProt P30530); assay: Inhibition of N-terminal GST-fused human AXL cytoplasmic domain (464 to 885 residues) expressed in baculovirus-infected Sf21 cells using CSKtide as substrate at 1 uM in presence of ATP by Mobility shift assay
[2] = molecular target: Cytoplasmic tyrosine-protein kinase BMX (Homo sapiens) (UniProt P51813); assay: Inhibition of N-terminal GST-fused full length human BMX ( 1 to 675 residues) expressed in baculovirus-infected Sf21 cells using Srctide as substrate at 1 uM in presence of ATP by Mobility shift assay
[3] = molecular target: Discoidin domain-containing receptor 2 (Homo sapiens) (UniProt Q16832); assay: Inhibition of N-terminal GST-fused human DDR2 cytoplasmic domain (422 to 855 residues) expressed in baculovirus-infected Sf21 cells using IRS1 as substrate at 1 uM in presence of ATP by Mobility shift assay
Chain of Discoidin domain-containing receptor 2 (Homo sapiens) (Q16832 whole entry, the tested form may be a part): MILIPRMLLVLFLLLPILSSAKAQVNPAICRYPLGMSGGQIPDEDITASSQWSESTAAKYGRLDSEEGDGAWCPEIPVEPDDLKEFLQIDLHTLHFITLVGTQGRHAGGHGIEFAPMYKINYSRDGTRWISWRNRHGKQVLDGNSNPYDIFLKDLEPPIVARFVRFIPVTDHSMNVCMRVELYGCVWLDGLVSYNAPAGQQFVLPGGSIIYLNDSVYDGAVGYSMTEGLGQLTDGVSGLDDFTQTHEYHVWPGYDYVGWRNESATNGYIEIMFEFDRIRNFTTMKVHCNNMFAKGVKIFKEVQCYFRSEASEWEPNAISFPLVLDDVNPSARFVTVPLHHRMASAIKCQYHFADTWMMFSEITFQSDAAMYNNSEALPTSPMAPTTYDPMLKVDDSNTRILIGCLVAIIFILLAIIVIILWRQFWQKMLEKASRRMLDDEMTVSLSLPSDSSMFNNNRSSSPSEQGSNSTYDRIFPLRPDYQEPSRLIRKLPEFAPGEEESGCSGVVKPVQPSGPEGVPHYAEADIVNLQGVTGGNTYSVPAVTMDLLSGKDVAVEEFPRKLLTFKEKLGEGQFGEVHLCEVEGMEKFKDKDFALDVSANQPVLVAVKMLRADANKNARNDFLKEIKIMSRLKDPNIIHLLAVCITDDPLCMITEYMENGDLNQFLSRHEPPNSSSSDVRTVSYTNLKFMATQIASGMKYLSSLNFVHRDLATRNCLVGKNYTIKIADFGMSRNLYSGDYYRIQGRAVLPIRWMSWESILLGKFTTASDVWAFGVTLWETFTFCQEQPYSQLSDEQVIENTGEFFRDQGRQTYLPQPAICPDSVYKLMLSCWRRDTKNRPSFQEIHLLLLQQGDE

[4] = molecular target: Fibroblast growth factor receptor 1 (Homo sapiens) (UniProt P11362); assay: Inhibition of N-terminal GST-fused human FGFR1 cytoplasmic domain (398 to 822 residues ) expressed in baculovirus-infected Sf21 cells using CSKtide as substrate at 1 uM in presence of ATP by Mobility shift assay
[5] = molecular target: Tyrosine-protein kinase Fyn (Homo sapiens) (UniProt P06241); assay: Inhibition of human FYN at 1 uM by mobility shift assay relative to control
Chain of Tyrosine-protein kinase Fyn (Homo sapiens) (P06241 2-537 limits assumed): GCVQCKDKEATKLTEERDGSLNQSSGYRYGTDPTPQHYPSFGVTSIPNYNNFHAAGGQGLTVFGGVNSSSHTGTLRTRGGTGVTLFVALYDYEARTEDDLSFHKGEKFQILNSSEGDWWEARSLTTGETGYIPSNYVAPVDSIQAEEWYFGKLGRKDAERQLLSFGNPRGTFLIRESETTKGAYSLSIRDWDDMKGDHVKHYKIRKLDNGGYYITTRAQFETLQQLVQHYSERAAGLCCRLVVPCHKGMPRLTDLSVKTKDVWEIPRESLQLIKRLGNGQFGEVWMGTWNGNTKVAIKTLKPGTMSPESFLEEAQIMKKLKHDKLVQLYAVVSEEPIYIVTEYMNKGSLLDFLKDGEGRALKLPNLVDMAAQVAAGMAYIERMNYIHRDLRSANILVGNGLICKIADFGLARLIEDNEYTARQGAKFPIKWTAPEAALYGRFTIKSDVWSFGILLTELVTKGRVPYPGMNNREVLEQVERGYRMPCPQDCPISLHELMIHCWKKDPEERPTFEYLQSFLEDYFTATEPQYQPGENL

[6] = molecular target: Receptor tyrosine-protein kinase erbB-2 (Homo sapiens) (UniProt P04626); assay: Inhibition of N-terminal His-tagged human HER2 cytoplasmic domain (676 to 1255 residues) expressed in baculovirus-infected Sf21 cells using Srctide as substrate at 1 uM in presence of ATP by Mobility shift assay
[7] = molecular target: Insulin receptor (Homo sapiens) (UniProt P06213); assay: Inhibition of N-terminal fused human INSR catalytic domain (1005 to 1310 residues) expressed in baculovirus-infected Sf21 cells using IRS1 as substrate at 1 uM in presence of ATP by Mobility shift assay
[8] = molecular target: Platelet-derived growth factor receptor beta (Homo sapiens) (UniProt P09619); assay: Inhibition of N-terminal GST-tagged human PDGFR-beta cytoplasmic domain (557 to 1106 residues) expressed in baculovirus-infected Sf21 cells using CSKtide as substrate at 1 uM in presence of ATP by Mobility shift assay
[9] = molecular target: Protein-tyrosine kinase 2-beta (Homo sapiens) (UniProt Q14289); assay: Inhibition of N-terminal GST-tagged full length human PYK2 (1 to 967 residues) expressed in baculovirus-infected Sf21 cells using Blk/Lyntide as substrate at 1 uM in presence of ATP by Mobility shift assay
[10] = molecular target: Tyrosine-protein kinase JAK3 (Homo sapiens) (UniProt P52333); assay: Inhibition of N-terminal His-tagged human JAK3 catalytic domain (795 to 1124 residues) expressed in baculovirus-infected Sf21 cells using Srctide as substrate at 1 uM in presence of ATP by Mobility shift assay
[11] = molecular target: Leukocyte tyrosine kinase receptor (Homo sapiens) (UniProt P29376); assay: Inhibition of N-terminal GST-tagged human LTK catalytic domain (498 to 796 residues) expressed in baculovirus-infected Sf21 cells using Srctide as substrate at 1 uM in presence of ATP by Mobility shift assay
[12] = molecular target: Muscle, skeletal receptor tyrosine-protein kinase (Homo sapiens) (UniProt O15146); assay: Inhibition of N-terminal GST-fused human MUSK catalytic domain (527 to 869 residues) expressed in baculovirus-infected Sf21 cells using CSKtide as substrate at 1 uM in presence of ATP by Mobility shift assay
[13] = molecular target: Proto-oncogene tyrosine-protein kinase Src (Homo sapiens) (UniProt P12931); assay: Inhibition of N-terminal GST-tagged full length human SRC (1 to 536 residues) expressed in baculovirus-infected Sf21 cells using Srctide as substrate at 1 uM in presence of ATP by Mobility shift assay
Chain of Proto-oncogene tyrosine-protein kinase Src (Homo sapiens) (P12931 2-536 limits assumed): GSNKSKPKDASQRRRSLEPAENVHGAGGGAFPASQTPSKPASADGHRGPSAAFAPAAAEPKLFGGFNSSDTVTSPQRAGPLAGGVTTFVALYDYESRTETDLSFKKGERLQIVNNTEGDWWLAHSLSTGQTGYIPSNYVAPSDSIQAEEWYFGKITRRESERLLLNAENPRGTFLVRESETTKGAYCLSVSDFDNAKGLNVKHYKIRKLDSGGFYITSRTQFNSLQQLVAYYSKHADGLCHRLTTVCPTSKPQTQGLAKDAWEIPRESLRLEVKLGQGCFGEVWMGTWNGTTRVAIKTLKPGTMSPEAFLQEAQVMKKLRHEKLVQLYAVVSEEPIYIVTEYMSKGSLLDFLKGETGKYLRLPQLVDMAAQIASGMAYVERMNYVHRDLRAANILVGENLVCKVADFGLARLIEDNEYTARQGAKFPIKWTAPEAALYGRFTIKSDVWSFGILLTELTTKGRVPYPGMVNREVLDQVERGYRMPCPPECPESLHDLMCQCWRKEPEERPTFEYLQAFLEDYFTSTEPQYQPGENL

[14] = molecular target: Serine/threonine-protein kinase BRSK2 (Homo sapiens) (UniProt Q8IWQ3); assay: Inhibition of N-terminal GST-tagged full length human BRSK2 (1 to 674 residues) expressed in baculovirus-infected Sf21 cells using CHKtide as substrate at 1 uM in presence of ATP by Mobility shift assay
Chain of Serine/threonine-protein kinase BRSK2 (Homo sapiens) (Q8IWQ3 whole entry, the tested form may be a part): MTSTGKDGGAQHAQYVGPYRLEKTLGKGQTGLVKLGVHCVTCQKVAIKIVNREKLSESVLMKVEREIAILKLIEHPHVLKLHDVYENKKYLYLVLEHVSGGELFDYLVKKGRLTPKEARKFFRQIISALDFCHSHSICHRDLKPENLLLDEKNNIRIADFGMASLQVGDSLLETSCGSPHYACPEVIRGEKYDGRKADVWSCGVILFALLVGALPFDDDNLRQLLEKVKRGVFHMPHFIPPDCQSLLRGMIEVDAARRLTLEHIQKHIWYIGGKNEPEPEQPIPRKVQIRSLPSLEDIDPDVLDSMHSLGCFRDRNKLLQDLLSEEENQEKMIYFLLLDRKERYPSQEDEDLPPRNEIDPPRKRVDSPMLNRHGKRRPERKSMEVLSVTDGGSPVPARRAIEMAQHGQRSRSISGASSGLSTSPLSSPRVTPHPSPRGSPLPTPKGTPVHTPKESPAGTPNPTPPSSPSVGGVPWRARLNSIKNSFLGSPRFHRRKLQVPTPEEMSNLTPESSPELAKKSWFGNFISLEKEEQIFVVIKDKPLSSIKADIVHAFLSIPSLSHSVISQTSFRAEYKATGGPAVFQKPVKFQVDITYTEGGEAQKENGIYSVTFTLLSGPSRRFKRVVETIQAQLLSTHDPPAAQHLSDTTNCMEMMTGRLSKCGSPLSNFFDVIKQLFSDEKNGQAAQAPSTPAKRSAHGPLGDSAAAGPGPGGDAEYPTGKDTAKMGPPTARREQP

[15] = molecular target: Dual specificity tyrosine-phosphorylation-regulated kinase 1A (Homo sapiens) (UniProt Q13627); assay: Inhibition of N-terminal GST-fused full length human DYRK1A (1 to 763 residues) expressed in baculovirus expression system using DYRKtide-F as substrate at 1 uM in presence of ATP by Mobility shift assay
[16] = molecular target: Serine/threonine-protein kinase LATS2 (Homo sapiens) (UniProt Q9NRM7); assay: Inhibition of N-terminal GST-fused human LATS2 catalytic domain (553 to 1088 residues) expressed in baculovirus expression system using SGKtide as substrate at 1 uM in presence of ATP by Mobility shift assay
[17] = molecular target: Misshapen-like kinase 1 (Homo sapiens) (UniProt Q8N4C8); assay: Inhibition of N-terminal GST-fused human MINK catalytic domain (1 to 314 residues) expressed in baculovirus expression system using Modified Erktide as substrate at 1 uM in presence of ATP by Mobility shift assay
[18] = molecular target: Serine/threonine-protein kinase MRCK alpha (Homo sapiens) (UniProt Q5VT25); assay: Inhibition of N-terminal GST-fused truncated human MRCKalpha (1 to 574 residues) expressed in baculovirus expression system using DAPK1tide as substrate at 1 uM in presence of ATP by Mobility shift assay
[19] = molecular target: Serine/threonine-protein kinase Nek2 (Homo sapiens) (UniProt P51955); assay: Inhibition of N-terminal His-tagged full length human NEK2 (1 to 445 residues) expressed in baculovirus expression system using CDK7 peptide as substrate at 1 uM in presence of ATP by Mobility shift assay
[20] = molecular target: [Pyruvate dehydrogenase (acetyl-transferring)] kinase isozyme 4, mitochondrial (Homo sapiens) (UniProt Q16654); assay: Inhibition of N-terminal GST-fused full length human PDHK4 (1 to 411 residues) expressed in Escherichia coli expression system using PDHKtide as substrate at 1 uM in presence of ATP by Mobility shift assay
Chain of [Pyruvate dehydrogenase (acetyl-transferring)] kinase isozyme 4, mitochondrial (Homo sapiens) (Q16654 whole entry, looked up, the tested form may be a part): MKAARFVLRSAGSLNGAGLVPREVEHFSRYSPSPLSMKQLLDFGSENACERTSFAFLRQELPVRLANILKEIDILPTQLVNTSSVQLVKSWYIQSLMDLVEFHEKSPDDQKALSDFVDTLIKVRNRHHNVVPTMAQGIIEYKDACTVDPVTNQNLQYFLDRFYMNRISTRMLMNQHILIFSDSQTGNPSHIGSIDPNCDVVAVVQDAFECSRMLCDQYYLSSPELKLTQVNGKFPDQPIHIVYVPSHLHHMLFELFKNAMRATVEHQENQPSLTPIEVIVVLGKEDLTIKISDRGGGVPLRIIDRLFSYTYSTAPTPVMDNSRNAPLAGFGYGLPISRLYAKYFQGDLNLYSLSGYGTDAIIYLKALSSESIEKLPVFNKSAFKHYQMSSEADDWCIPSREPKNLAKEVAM

[21] = molecular target: Serine/threonine-protein kinase PLK3 (Homo sapiens) (UniProt Q9H4B4); assay: Inhibition of N-terminal GST-fused human PLK3 catalytic domain (58 to 340 residues) expressed in baculovirus expression system using CDC25ctide as substrate at 1 uM in presence of ATP by Mobility shift assay
Chain of Serine/threonine-protein kinase PLK3 (Homo sapiens) (Q9H4B4 whole entry, looked up, the tested form may be a part): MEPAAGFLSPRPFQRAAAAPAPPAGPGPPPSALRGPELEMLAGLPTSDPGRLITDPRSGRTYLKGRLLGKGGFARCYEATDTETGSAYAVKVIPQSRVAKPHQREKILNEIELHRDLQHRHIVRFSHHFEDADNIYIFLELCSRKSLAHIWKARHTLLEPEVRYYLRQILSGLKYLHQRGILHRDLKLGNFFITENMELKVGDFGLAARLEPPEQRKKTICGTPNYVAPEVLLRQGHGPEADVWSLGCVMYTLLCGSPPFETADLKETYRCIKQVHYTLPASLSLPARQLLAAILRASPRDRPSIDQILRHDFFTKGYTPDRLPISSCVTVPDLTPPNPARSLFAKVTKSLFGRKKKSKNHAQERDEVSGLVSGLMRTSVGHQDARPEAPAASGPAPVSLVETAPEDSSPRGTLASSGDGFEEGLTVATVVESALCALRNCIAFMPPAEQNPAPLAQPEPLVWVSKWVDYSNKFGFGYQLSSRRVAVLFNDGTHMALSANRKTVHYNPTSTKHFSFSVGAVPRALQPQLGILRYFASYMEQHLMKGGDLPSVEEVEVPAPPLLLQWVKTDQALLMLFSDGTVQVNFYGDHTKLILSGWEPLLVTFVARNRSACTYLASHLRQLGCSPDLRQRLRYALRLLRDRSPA

[22] = molecular target: Serine/threonine-protein kinase Sgk1 (Homo sapiens) (UniProt O00141); assay: Inhibition of N-terminal GST-tagged truncated human SGK (61 to 431 residues) expressed in baculovirus expression system using SGKtide as substrate at 1 uM in presence of ATP by Mobility shift assay
Chain of Serine/threonine-protein kinase Sgk1 (Homo sapiens) (O00141 whole entry, the tested form may be a part): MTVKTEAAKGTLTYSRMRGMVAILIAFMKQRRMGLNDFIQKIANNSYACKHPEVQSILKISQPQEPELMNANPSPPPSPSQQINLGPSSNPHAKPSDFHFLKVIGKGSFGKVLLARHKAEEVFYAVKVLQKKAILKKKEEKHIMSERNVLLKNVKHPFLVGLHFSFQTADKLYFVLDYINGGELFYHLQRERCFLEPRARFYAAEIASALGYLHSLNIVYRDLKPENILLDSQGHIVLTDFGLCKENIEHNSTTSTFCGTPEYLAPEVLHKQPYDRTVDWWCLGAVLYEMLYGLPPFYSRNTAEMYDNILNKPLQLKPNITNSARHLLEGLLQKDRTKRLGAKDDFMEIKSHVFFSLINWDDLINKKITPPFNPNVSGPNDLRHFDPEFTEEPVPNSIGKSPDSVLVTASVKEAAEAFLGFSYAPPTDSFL

[23] = molecular target: Testis-specific serine/threonine-protein kinase 2 (Homo sapiens) (UniProt Q96PF2); assay: Inhibition of N-terminal GST-fused full length human TSSK2 (1 to 358 residues) expressed in baculovirus expression system using GS peptide as substrate at 1 uM in presence of ATP by Mobility shift assay

Chain of Tyrosine-protein kinase receptor UFO (Homo sapiens) (P30530 whole entry, the tested form may be a part): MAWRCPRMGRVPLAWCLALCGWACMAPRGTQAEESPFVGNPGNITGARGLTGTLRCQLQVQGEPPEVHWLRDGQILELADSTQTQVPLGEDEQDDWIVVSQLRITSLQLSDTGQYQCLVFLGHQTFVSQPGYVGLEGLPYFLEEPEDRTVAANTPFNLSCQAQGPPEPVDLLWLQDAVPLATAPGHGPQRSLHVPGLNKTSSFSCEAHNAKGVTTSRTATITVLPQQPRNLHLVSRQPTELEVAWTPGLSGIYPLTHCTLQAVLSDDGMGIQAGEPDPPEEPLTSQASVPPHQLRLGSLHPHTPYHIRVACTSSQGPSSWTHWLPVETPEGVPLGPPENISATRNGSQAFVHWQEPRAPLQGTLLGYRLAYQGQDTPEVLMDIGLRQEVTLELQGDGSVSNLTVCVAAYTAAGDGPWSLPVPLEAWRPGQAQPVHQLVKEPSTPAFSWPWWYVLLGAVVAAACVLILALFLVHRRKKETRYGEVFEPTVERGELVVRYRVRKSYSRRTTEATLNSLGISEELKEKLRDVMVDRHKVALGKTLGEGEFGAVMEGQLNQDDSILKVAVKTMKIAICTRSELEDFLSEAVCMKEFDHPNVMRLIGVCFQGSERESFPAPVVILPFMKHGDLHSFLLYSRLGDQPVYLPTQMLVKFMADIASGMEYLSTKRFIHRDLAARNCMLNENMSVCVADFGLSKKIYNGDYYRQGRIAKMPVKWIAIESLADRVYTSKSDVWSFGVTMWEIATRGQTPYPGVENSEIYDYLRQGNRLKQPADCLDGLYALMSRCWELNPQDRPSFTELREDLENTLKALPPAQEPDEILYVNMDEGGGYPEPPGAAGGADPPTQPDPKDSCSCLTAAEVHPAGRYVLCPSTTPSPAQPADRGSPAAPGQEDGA

SMILES	inhibition [1] [%]	inhibition [2] [%]	inhibition [3] [%]	inhibition [4] [%]	inhibition [5] [%]	inhibition [6] [%]	inhibition [7] [%]	inhibition [8] [%]	inhibition [9] [%]	inhibition [10] [%]	inhibition [11] [%]	inhibition [12] [%]	inhibition [13] [%]	inhibition [14] [%]	inhibition [15] [%]	inhibition [16] [%]	inhibition [17] [%]	inhibition [18] [%]	inhibition [19] [%]	inhibition [20] [%]	also measured
Cc1cc(C)c(CNC(=O)c2cc(Br)c3c(c2C)O[C@@](C)([C@H]2CC[C@H](N(C)C)CC2)O3)c(=O)[nH]1	-0.5	-2.2	-0.2	-2.9	2.6	6	4.8	-1.3	3	-1.7	-3.2	-5.1	-4.9	6.6	-8.2	-0.6	-2.6	2.7	1.5	-4.1	inhibition [21]: -1.3%; inhibition [22]: -3%; inhibition [23]: -2.5%
Cc1cc(C)c(CNC(=O)c2cc(Cl)c3c(c2C)O[C@@](C)([C@H]2CC[C@H](N(C)C)CC2)O3)c(=O)[nH]1 [VALEMETOSTAT]	-3.5	-3.1	-2.8	-4.3	5.1	5.6	0.1	-4.5	2.8	-4	0.1	-5.5	-7.6	11.2	-3.4	0.6	-4.6	0.8	1.4	-4.3	inhibition [21]: -7.8%; inhibition [22]: -4.2%; inhibition [23]: -3.3%

From ChEMBL document CHEMBL5647694, “Novel orally bioavailable EZH1/2 dual inhibitors with greater antitumor efficacy than an EZH2 selective inhibitor” (Cancer Sci, 2017)
